# From US7875647B2, “Heteroaryl-pyrazole derivatives as cannabinoid CB1 receptor antagonists” (Green Cross Corporation, priority 2006, dated 2011)
# Biological target: T1, Cannabinoid-1 receptor (CB1R) (Rattus norvegicus, UniProt P20272)
# T1 construct: The tissue obtained from the brain of SD rats was homogenized; from tissue; host or cells: brain of SD rats (membrane pellet of the homogenate)
# Test: Cannabinoid-1 receptor (CB1R) binding affinity assay ([3H]CP-55940, rat CB-1 receptor binding protocol)
# Conditions: IC50(nM), brain tissue of SD rats, [3H]CP-55940, 30° C. 60 min
# T1 sequence (P20272 whole entry): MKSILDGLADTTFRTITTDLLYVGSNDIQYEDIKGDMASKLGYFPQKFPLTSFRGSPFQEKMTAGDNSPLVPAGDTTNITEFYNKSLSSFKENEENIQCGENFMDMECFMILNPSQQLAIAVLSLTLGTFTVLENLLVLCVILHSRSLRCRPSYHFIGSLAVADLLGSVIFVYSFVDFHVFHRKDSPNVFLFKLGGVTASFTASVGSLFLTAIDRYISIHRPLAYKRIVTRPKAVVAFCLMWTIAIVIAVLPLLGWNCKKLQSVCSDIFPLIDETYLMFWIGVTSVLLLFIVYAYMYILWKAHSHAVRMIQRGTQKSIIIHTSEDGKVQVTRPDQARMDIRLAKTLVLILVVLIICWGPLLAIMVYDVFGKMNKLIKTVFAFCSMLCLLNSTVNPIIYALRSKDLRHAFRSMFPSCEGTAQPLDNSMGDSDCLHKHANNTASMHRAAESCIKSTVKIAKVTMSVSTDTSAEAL
row,Structure (SMILES),IC50
1,"CCCCCOC(C)(C)c1nnc(-c2nn(-c3ccc(Cl)cc3Cl)c(-c3ccc(Cl)cc3)c2C)s1 [Example 461, 2-(5-(4-chlorophenyl)-1-(2,4-dichlorophenyl)-4-methyl-1H-pyrazol-3-yl)-5-(2-(pentyloxy)propan-2-yl)-1,3,4-thiadiazole]",13.7 nM
2,"CCc1c(-c2nnc(C3(c4ccc(Cl)cc4)CCC3)s2)nn(-c2ccc(Cl)cc2Cl)c1-c1ccc(Cl)cc1 [Example 483, 2-(5-(4-chlorophenyl)-1-(2,4-dichlorophenyl)-4-ethyl-1H-pyrazol-3-yl)-5-(1-(4-chlorophenyl)cyclobutyl)-1,3,4-thiadiazole]",2.32 nM

# Same assay, conditions: brain tissue of SD rats, [3H]CP-55940, 30° C. 60 min; read-out: IC50
row,Structure (SMILES),IC50
1,"Cc1c(-c2nnc(C3(C(F)(F)F)CC3)s2)nn(-c2ccc(Cl)cc2Cl)c1-c1ccc(Cl)cc1 [Example 462, 2-(5-(4-chlorophenyl)-1-(2,4-dichlorophenyl)-4-methyl-1H-pyrazol-3-yl)-5-(1-(trifluoromethyl)cyclopropyl)-1,3,4-thiadiazole]",36.5 nM
2,"CCc1c(-c2nnc(C3(c4ccc(Cl)cc4)CC3)s2)nn(-c2ccc(Cl)cc2Cl)c1-c1ccc(Cl)cc1 [Example 463, 2-(5-(4-chlorophenyl)-1-(2,4-dichlorophenyl)-4-ethyl-1H-pyrazol-3-yl)-5-(1-(4-chlorophenyl)cyclopropyl)-1,3,4-thiadiazole]",3.95 nM
3,"CCc1c(-c2nnc(C3(c4ccc(Cl)cc4)CC3)s2)nn(-c2ccccc2Cl)c1-c1ccc(Br)cc1 [Example 464, 2-(5-(4-bromophenyl)-1-(2-chlorophenyl)-4-ethyl-1H-pyrazol-3-yl)-5-(1-(4-chlorophenyl)cyclopropyl)-1,3,4-thiadiazole]",4.41 nM
4,"Cc1c(-c2nnc(C3(C(F)(F)F)CCC3)s2)nn(-c2ccc(Cl)cc2Cl)c1-c1ccc(Cl)cc1 [Example 465, 2-(5-(4-chlorophenyl)-1-(2,4-dichlorophenyl)-4-methyl-1H-pyrazol-3-yl)-5-(1-(trifluoromethyl)cyclobutyl)-1,3,4-thiadiazole]",33.9 nM
5,"Cc1c(-c2nnc(CC(F)(F)F)s2)nn(-c2ccc(Cl)cc2Cl)c1-c1ccc(Cl)cc1 [Example 466, 2-(5-(4-chlorophenyl)-1-(2,4-dichlorophenyl)-4-methyl-1H-pyrazol-3-yl)-5-(2,2,2-trifluoroethyl)-1,3,4-thiadiazole]",102 nM
6,"CCc1c(-c2nnc(C3(Cc4ccccc4)CC3)s2)nn(-c2ccc(Cl)cc2Cl)c1-c1ccc(Br)cc1 [Example 468, 2-(1-benzylcyclopropyl)-5-(5-(4-bromorophenyl)-1-(2,4-dichlorophenyl)-4-ethyl-1H-pyrazol-3-yl)-1,3,4-thiadiazole]",5.94 nM
7,"Cc1c(-c2nnc(C3(C)CC3)s2)nn(-c2ccc(Cl)cc2Cl)c1-c1ccc(Cl)cc1 [Example 469, 2-(5-(4-chlorophenyl)-1-(2,4-dichlorophenyl)-4-methyl-1H-pyrazol-3-yl)-5-(1-methylcyclopropyl)-1,3,4-thiadiazole]",36.3 nM
8,"CCc1c(-c2nnc(C3(C)CC3)s2)nn(-c2ccc(Cl)cc2Cl)c1-c1ccc(Br)cc1 [Example 470, 2-(5-(4-bromophenyl)-1-(2,4-dichlorophenyl)-4-ethyl-1H-pyrazol-3-yl)-5-(1-methylcyclopropyl)-1,3,4-thiadiazole]",11.8 nM
9,"Cc1c(-c2nnc(C3(Cc4ccc(Cl)cc4)CC3)s2)nn(-c2ccc(Cl)cc2Cl)c1-c1ccc(Cl)cc1 [Example 471, 2-(1-(4-chlorobenzyl)cyclopropyl)-5-(5-(4-chlorophenyl)-1-(2,4-dichlorophenyl)-4-methyl-1H-pyrazol-3-yl)-1,3,4-thiadiazole]",27.2 nM
10,"CCc1c(-c2nnc(C3(Cc4ccc(Cl)cc4)CC3)s2)nn(-c2ccc(Cl)cc2Cl)c1-c1ccc(Br)cc1 [Example 472, 2-(1-(4-chlorobenzyl)cyclopropyl)-5-(5-(4-bromophenyl)-1-(2,4-dichlorophenyl)-4-ethyl-1H-pyrazol-3-yl)-1,3,4-thiadiazole]",6.66 nM
11,"CCc1c(-c2nnc(C3(c4ccc(OC)cc4)CC3)s2)nn(-c2ccc(Cl)cc2Cl)c1-c1ccc(Br)cc1 [Example 473, 2-(5-(4-bromophenyl)-1-(2,4-dichlorophenyl)-4-ethyl-1H-pyrazol-3-yl)-5-(1-(4-methoxyphenyl)cyclopropyl)-1,3,4-thiadiazole]",4.53 nM
12,"CCc1c(-c2nnc(C3(c4ccc(C)cc4)CC3)s2)nn(-c2ccc(Cl)cc2Cl)c1-c1ccc(Br)cc1 [Example 474, 2-(5-(4-bromophenyl)-1-(2,4-dichlorophenyl)-4-ethyl-1H-pyrazol-3-yl)-5-(1-p-tolylcyclopropyl)-1,3,4-thiadiazole]",18.8 nM
13,"CCc1c(-c2nnc(C3(c4ccccc4)CC3)s2)nn(-c2ccc(Cl)cc2Cl)c1-c1ccc(Br)cc1 [Example 475, 2-(5-(4-bromophenyl)-1-(2,4-dichlorophenyl)-4-ethyl-1H-pyrazol-3-yl)-5-(1-phenylcyclopropyl)-1,3,4-thiadiazole]",8.75 nM
14,"CCc1c(-c2nnc(C3(c4ccc(Cl)cc4)CC3)s2)nn(-c2ccc(Cl)cc2Cl)c1-c1ccc(Br)cc1 [Example 477, 2-(5-(4-bromophenyl)-1-(2,4-dichlorophenyl)-4-ethyl-1H-pyrazol-3-yl)-5-(1-(4-chlorophenyl)cyclopropyl)-1,3,4-thiadiazole]",4.1 nM
15,"CCc1c(-c2nnc(C3(c4ccc(Cl)cc4Cl)CC3)s2)nn(-c2ccc(Cl)cc2Cl)c1-c1ccc(Br)cc1 [Example 478, 2-(5-(4-bromophenyl)-1-(2,4-dichlorophenyl)-4-ethyl-1H-pyrazol-3-yl)-5-(1-(2,4-dichlorophenyl)cyclopropyl)-1,3,4-thiadiazole]",6.49 nM
16,"CCc1c(-c2nnc(C3(c4ccccc4)CC3)s2)nn(-c2ccc(Cl)cc2Cl)c1-c1ccc(Cl)cc1 [Example 479, 2-(5-(4-chlorophenyl)-1-(2,4-dichlorophenyl)-4-ethyl-1H-pyrazol-3-yl)-5-(1-phenylcyclopropyl)-1,3,4-thiadiazole]",6.56 nM
17,"CCc1c(-c2nnc(C3(c4ccc(C)cc4)CC3)s2)nn(-c2ccc(Cl)cc2Cl)c1-c1ccc(Cl)cc1 [Example 480, 2-(5-(4-chlorophenyl)-1-(2,4-dichlorophenyl)-4-ethyl-1H-pyrazol-3-yl)-5-(1-p-tolylcyclopropyl)-1,3,4-thiadiazole]",5.08 nM
18,"CCc1c(-c2nnc(C3(c4ccc(OC)cc4)CC3)s2)nn(-c2ccc(Cl)cc2Cl)c1-c1ccc(Cl)cc1 [Example 481, 2-(5-(4-chlorophenyl)-1-(2,4-dichlorophenyl)-4-ethyl-1H-pyrazol-3-yl)-5-(1-(4-methoxyphenyl)cyclopropyl)-1,3,4-thiadiazole]",7.6 nM
19,"CCc1c(-c2nnc(C3(c4ccc(Cl)cc4Cl)CC3)s2)nn(-c2ccc(Cl)cc2Cl)c1-c1ccc(Cl)cc1 [Example 482, 2-(5-(4-chlorophenyl)-1-(2,4-dichlorophenyl)-4-ethyl-1H-pyrazol-3-yl)-5-(1-(2,4-dichlorophenyl)cyclopropyl)-1,3,4-thiadiazole]",3.94 nM
20,"CCc1c(-c2nnc(C3(C)CC3)s2)nn(-c2ccc(Cl)cc2Cl)c1-c1ccc(Cl)cc1 [Example 484, 2-(5-(4-chlorophenyl)-1-(2,4-dichlorophenyl)-4-ethyl-1H-pyrazol-3-yl)-5-(1-methylcyclopropyl)-1,3,4-thiadiazole]",31.5 nM
21,"CCc1c(-c2nnc(C3(c4ccccc4)CCCC3)s2)nn(-c2ccc(Cl)cc2Cl)c1-c1ccc(Br)cc1 [Example 485, 2-(5-(4-bromophenyl)-1-(2,4-dichlorophenyl)-4-ethyl-1H-pyrazol-3-yl)-5-(1-phenylcyclopentyl)-1,3,4-thiadiazole]",32.8 nM
22,"CCc1c(-c2nnc(C3(c4ccc(Cl)cc4)CCCC3)s2)nn(-c2ccc(Cl)cc2Cl)c1-c1ccc(Br)cc1 [Example 486, 2-(5-(4-bromophenyl)-1-(2,4-dichlorophenyl)-4-ethyl-1H-pyrazol-3-yl)-5-(1-(4-chlorophenyl)cyclopentyl)-1,3,4-thiadiazole]",23 nM
23,"Cc1c(-c2nnc(C3(c4ccccc4)CC3)s2)nn(-c2ccc(Cl)cc2Cl)c1-c1ccc(Cl)cc1 [Example 487, 2-(5-(4-chlorophenyl)-1-(2,4-dichlorophenyl)-4-methyl-1H-pyrazol-3-yl)-5-(1-phenylcyclopropyl)-1,3,4-thiadiazole]",9.6 nM
24,"CCC1(c2nnc(-c3nn(-c4ccc(Cl)cc4Cl)c(-c4ccc(Cl)cc4)c3C)s2)CC1 [Example 488, 2-(5-(4-chlorophenyl)-1-(2,4-dichlorophenyl)-4-methyl-1H-pyrazol-3-yl)-5-(1-ethylcyclopropyl)-1,3,4-thiadiazole]",106 nM
25,"CCc1c(-c2nnc(C3(CC)CC3)s2)nn(-c2ccc(Cl)cc2Cl)c1-c1ccc(Cl)cc1 [Example 489, 2-(5-(4-chlorophenyl)-1-(2,4-dichlorophenyl)-4-ethyl-1H-pyrazol-3-yl)-5-(1-ethylcyclopropyl)-1,3,4-thiadiazole]",19.8 nM
26,"CCc1c(-c2nnc(C3(CC)CC3)s2)nn(-c2ccc(Cl)cc2Cl)c1-c1ccc(Br)cc1 [Example 490, 2-(5-(4-bromophenyl)-1-(2,4-dichlorophenyl)-4-ethyl-1H-pyrazol-3-yl)-5-(1-ethylcyclopropyl)-1,3,4-thiadiazole]",19.8 nM
27,"CCc1c(-c2nnc(C3(C#N)CC3)s2)nn(-c2ccc(Cl)cc2Cl)c1-c1ccc(Cl)cc1 [Example 491, 1-(5-(5-(4-chlorophenyl)-1-(2,4-dichlorophenyl)-4-ethyl-1H-pyrazol-3-yl)-1,3,4-thiadiazol-2-yl)cyclopropanecarbonitrile]",143 nM
28,"CCc1c(-c2nnc(C3(c4ccc(F)cc4)CC3)s2)nn(-c2ccc(Cl)cc2Cl)c1-c1ccc(Br)cc1 [Example 492, 2-(5-(4-bromophenyl)-1-(2,4-dichlorophenyl)-4-ethyl-1H-pyrazol-3-yl)-5-(1-(4-fluorophenyl)cyclopropyl)-1,3,4-thiadiazole]",2.24 nM
29,"CCc1c(-c2nnc(C3(c4cccc(Cl)c4)CC3)s2)nn(-c2ccc(Cl)cc2Cl)c1-c1ccc(Cl)cc1 [Example 494, 2-(5-(4-chlorophenyl)-1-(2,4-dichlorophenyl)-4-ethyl-1H-pyrazol-3-yl)-5-(1-(3-chlorophenyl)cyclopropyl)-1,3,4-thiadiazole]",6.43 nM
